Results on four compounds are retold here after ChEMBL document CHEMBL6078686, “Synthesis of 1-Hydroxy(and 1-Alkoxy, 1-Acyloxy)-1H-indoles and evaluations of their suppressive activities against tumor growth through inhibiting lactate dehydrogenase A” (Eur J Med Chem, 2025).

Activity calls are given as the source filed them. The calls are words filed in the database; no cut-off is given here.

Series [1] addresses T1, L-lactate dehydrogenase A chain (Homo sapiens, UniProt P00338). Kind of series: Non-competitive inhibition of human recombinant LDHA assessed as ratio of Km/Vmax in presence of pyruvate by measuring NADH fluorescence at 25 nM by Lineweaver-Burk plot analysis.
The target in series [2] is T1, L-lactate dehydrogenase A chain. The series can be described thus: Non-competitive inhibition of human recombinant LDHA assessed as ratio of Km/Vmax in presence of pyruvate by measuring NADH fluorescence at 100 nM by Lineweaver-Burk plot analysis.
For series [3] the target is unchanged. Kind of series: Inhibition of human recombinant LDHA assessed as conversion of NADH […] at by spectrofluorometry.
The test system of series [4] is DLD-1. Kind of series: Cytotoxicity against human DLD-1 cells assessed as inhibition of cell growth measured after 48 hrs incubation by MTT assay. The series is classed as functional. Background: Tetrazolium dyes change colour on reduction, which living cells bring about.
The next series concerns A549. Kind of series: Cytotoxicity against human A549 cells assessed as inhibition of cell growth measured after 48 hrs incubation by MTT assay. The series is classed as functional.
Another series concerns MCF7. Kind of series: Cytotoxicity against human MCF7 cells assessed as inhibition of cell growth measured after 48 hrs incubation by MTT assay. The series is classed as functional.
The subject of a further series is PANC-1. Kind of series: Cytotoxicity against human PANC-1 cells assessed as inhibition of cell growth measured after 48 hrs incubation by MTT assay. The series is classed as functional.
The test system of another series is U-87 MG. Kind of series: Cytotoxicity against human U87 cells assessed as inhibition of cell growth measured after 48 hrs incubation by MTT assay. The series is classed as functional, U-87MG ATCC.
A further series relates to HeLa. Kind of series: Cytotoxicity against human HeLa cells assessed as inhibition of cell growth measured after 48 hrs incubation by MTT assay. The series is classed as functional.
A short description of series [5]: Cytotoxicity against human T HESCs cells assessed as inhibition of cell growth measured after 48 hrs incubation by MTT assay. The series is classed as toxicity, cell-based.
A short description of series [6]: Cytotoxicity against mouse Hepa1-6 cells assessed as inhibition of cell growth measured after 48 hrs incubation by MTT assay. The series is classed as toxicity, cell-based, Hepa 1-6.
A short description of series [7]: Cytotoxicity against mouse AML12 cells assessed as inhibition of cell growth measured after 48 hrs incubation by MTT assay. The series is classed as toxicity, cell-based.
In series [8] the target is T1, L-lactate dehydrogenase A chain. Kind of series: Inhibition of intracellular LDHA activity in human DLD-1 cell lysate assessed as conversion of NADH […] by spectrofluorometry. The series is classed as subcellular.
In series [9] the test system is DLD-1. Kind of series: Induction of apoptosis in human DLD-1 cells assessed as caspase 9 at 20 to 40 uM measured after 48 hrs by Western blot analysis. The series is classed as functional, cell-based. To be noted: dose 20-40 µM. A general note: A western blot detects proteins with antibodies after separation by electrophoresis.
Series [10] relates to DLD-1. The series can be described thus: Induction of apoptosis in human DLD-1 cells assessed as caspase 3 at 20 to 40 uM measured after 48 hrs by Western blot analysis. The series is classed as functional, cell-based. As to conditions: dose 20-40 µM.
The subject of series [11] is DLD-1. Kind of series: Induction of apoptosis in human DLD-1 cells assessed as PARP at 20 to 40 uM measured after 48 hrs by Western blot analysis. The series is classed as functional, cell-based. To be noted: dose 20-40 µM.
The test system of series [12] is DLD-1. The series can be described thus: In vivo tumor suppressor activity against human DLD-1 cells subcutaneously implemented in male athymic mouse model assessed as reduction in tumor volume at 5 to 25 mg/kg abdominally injected daily for 2 weeks after 15 days of tumor injection measured after 2 weeks. The series is classed as functional, organism-based. As to conditions: dose 5-25 mg/kg.

Series [13] has as its system DLD-1. Kind of series: In vivo tumor suppressor activity against human DLD-1 cells subcutaneously implemented in male athymic mouse model assessed as reduction in tumor weight at 5 to 25 mg/kg abdominally injected daily for 2 weeks after 15 days of tumor injection measured after 2 weeks. The series is classed as functional, organism-based. To be noted: dose 5-25 mg/kg.

The nature of series [14]: Toxicity in male athymic mouse subcutaneously inoculated with human DLD-1 cells assessed as weight loss at 5 to 25 mg/kg abdominally injected daily for 2 weeks after 15 days of tumor injection measured after 2 weeks. The series is classed as organism-based. As to conditions: in vivo, 336 h, dose 5-25 mg/kg.
Series [15] relates to DLD-1. Kind of series: In vivo tumor suppressor activity against human DLD-1 cells subcutaneously implemented in male athymic mouse model assessed as caspase 3 activation in tumor tissue at 25 mg/kg abdominally injected daily for 2 weeks after 15 days of tumor injection measured after 2 weeks. The series is classed as functional, organism-based.
Series [16] is described as follows: Toxicity in male athymic mouse subcutaneously inoculated with human DLD-1 cells assessed as injury/inflammation in liver at 5 to 25 mg/kg abdominally injected daily for 2 weeks after 15 days of tumor injection measured after 2 weeks. As to conditions: in vivo, 336 h, dose 5-25 mg/kg. The series is classed as organism-based.
Series [17] is described as follows: Toxicity in male athymic mouse subcutaneously inoculated with human DLD-1 cells assessed as injury/inflammation in kidney at 5 to 25 mg/kg abdominally injected daily for 2 weeks after 15 days of tumor injection measured after 2 weeks. The series is classed as organism-based. To be noted: in vivo, 336 h, dose 5-25 mg/kg.
Series [18] relates to CCCCCCOCc1c(C(=O)OC)n(O)c2cccc(Br)c12. Kind of series: Non-competitive inhibition of human recombinant LDHA assessed as Km in presence of pyruvate by measuring NADH fluorescence at 25 nM by Michaelis-Menten analysis.
The test system is the same in series [19]. The series can be described thus: Non-competitive inhibition of human recombinant LDHA assessed as Km in presence of pyruvate by measuring NADH fluorescence at 100 nM by Michaelis-Menten analysis.
In series [20] the test system is COC(=O)c1c(COCCc2ccccc2)c2c(Br)cccc2n1OC. Kind of series: Non-competitive inhibition of human recombinant LDHA assessed as Km in presence of pyruvate by measuring NADH fluorescence at 40 nM by Michaelis-Menten analysis.
Series [21] shares this test system. Kind of series: Non-competitive inhibition of human recombinant LDHA assessed as Km in presence of pyruvate by measuring NADH fluorescence at 160 nM by Michaelis-Menten analysis.
Series [22] deals with CCCCCCOCc1c(C(=O)OC)n(O)c2cccc(Br)c12. The series can be described thus: Non-competitive inhibition of human recombinant LDHA assessed as Vmax in presence of pyruvate by measuring NADH fluorescence at 25 nM by Lineweaver-Burk plot analysis.
For series [23] the test system is unchanged. Kind of series: Non-competitive inhibition of human recombinant LDHA assessed as Vmax in presence of pyruvate by measuring NADH fluorescence at 100 nM by Lineweaver-Burk plot analysis.
Series [24] relates to COC(=O)c1c(COCCc2ccccc2)c2c(Br)cccc2n1OC. The series can be described thus: Non-competitive inhibition of human recombinant LDHA assessed as Vmax in presence of pyruvate by measuring NADH fluorescence at 40 nM by Lineweaver-Burk plot analysis.
Series [25] has the same test system. Kind of series: Non-competitive inhibition of human recombinant LDHA assessed as Vmax in presence of pyruvate by measuring NADH fluorescence at 160 nM by Lineweaver-Burk plot analysis.
Series [26] addresses T1, L-lactate dehydrogenase A chain. The series can be described thus: Non-competitive inhibition of human recombinant LDHA assessed as ratio of Km/Vmax in presence of pyruvate by measuring NADH fluorescence at 40 nM by Lineweaver-Burk plot analysis.
The target is the same in series [27]. Kind of series: Non-competitive inhibition of human recombinant LDHA assessed as ratio of Km/Vmax in presence of pyruvate by measuring NADH fluorescence at 160 nM by Lineweaver-Burk plot analysis.

By IC50 is commonly meant the concentration needed to halve the response being measured. What is called GI50 is the concentration giving 50% growth inhibition. Turning to `CCCCCCOCc1c(C(=O)OC)n(O)c2cccc(Br)c12`, the Vmax/Km in series [1] amounted to 0.056; in series [2], 0.047. In addition, the IC50 in series [3] worked out at 0.025 µM; in [8], 11.6 µM. For the same compound, the inhibition entry in [3] and in [8] was “Dose-dependent-effect” throughout. Also, the GI50 was determined as 27 µM in the series on DLD-1 [4]; 45.6 µM in the series on A549; 31.7 µM in the series on MCF7; 31.4 µM in the series on PANC-1; 60.9 µM in the series with U-87 MG; 39.6 µM in the series with HeLa. Besides, the GI50 at 48 h in [5] was over 100 µM; in [6], 49.6 µM; in series [7] it was over 100 µM. For the same compound, the outcome in the series with DLD-1 [9], in the series on DLD-1 [10], in the series with DLD-1 [11], in the series with DLD-1 [12], in the series with DLD-1 [13] and with DLD-1 [15] was Active. The Activity entry in series [14], in [16] and in series [17] was “Non-toxic” in each case.
Regarding `COC(=O)c1cc2c(C(F)(F)F)cc(-c3ccccc3)cc2n1O`, the GI50 in the series with DLD-1 [4] was 106 µM.
One may read the Km as the substrate concentration at which the rate is half of its maximum. Turning to “L-lactate dehydrogenase A chain (Homo sapiens) (from UniProt P00338)”, the Km in series [18] came to 254 µM; in series [19] it was 170 µM; in series [20], 172 µM; in series [21] it was 189 µM. For the same compound, the Vmax in [22] was 4.54; in series [23] it was 3.6; in series [24], 5.84; in series [25], 5.01.
As for `COC(=O)c1c(COCCc2ccccc2)c2c(Br)cccc2n1OC`, the values for the Vmax/Km in [26] and in series [27] were 0.029 and 0.038, respectively. Moreover, in series [3], the IC50 is 0.124 µM. Also, the inhibition result in series [3] is “Dose-dependent-effect”. The GI50 in the series on DLD-1 [4] was over 100 µM; in the series on A549 it was over 100 µM; with MCF7, over 100 µM; with PANC-1, over 100 µM; in the series on U-87 MG, 66.7 µM; with HeLa, 83.5 µM. In addition, the GI50 at 48 h in [5] was over 100 µM; in [6], 56.2 µM; in [7], 85.2 µM. Besides, in [8], the inhibition entry is “inactive”.
